Source: US10167262B2, “Herbicidal substituted 3-arylpyrazoles” (FMC CORPORATION, priority 2014, dated 2019)

Tests used:
Type in all cases: in vivo
[1] = test system: kochia (Kochia scoparia); assay: Test C postemergence greenhouse test, plant response rating 0-100; conditions: for Plant response rating, Kochia: scale 0 to 100
In short: (§1)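 Postemergence spray of formulated test chemicals on plants 2 to 18 cm tall (1- to 4-leaf stage) grown in peat/vermiculite medium. Greenhouse hold 13 to 15 days, then visual comparison with untreated controls on a 0-100 scale (0 no effect, 100 complete control); dash means no test result.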

[2] = test system: chickweed (common chickweed, Stellaria media); assay: as above; conditions: for Plant response rating, Chickweed: scale 0 to 100
In short: as §1

[3] = test system: wild oat (Avena fatua); assay: as above; conditions: for Plant response rating, Oat, Wild: scale 0 to 100
In short: as §1

[4] = test system: yellow nutsedge (Cyperus esculentus); assay: Test C pre-/postemergence greenhouse test, plant response rating 0-100; conditions: Postemergence; for Plant response rating, Nutsedge, Yellow: scale 0 to 100
In short: (§2)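 After treatment, pots stay in the greenhouse 13–15 days before each species is compared with untreated controls and given a 0–100 visual score. Preemergence seeds are in loam blended with sand; postemergence plants, 1–4 leaves, are in peat-based medium.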

[5] = test system: soybean (Glycine max); assay: as above; conditions: Postemergence; for Plant response rating, Soybean: scale 0 to 100
In short: as §2

[6] = test system: Italian ryegrass (Lolium multiflorum); assay: as above; conditions: Postemergence; for Plant response rating, Ryegrass, Italian: scale 0 to 100
In short: as §2

[7] = test system: corn (Zea mays); assay: as above; conditions: Postemergence; for Plant response rating, Corn: scale 0 to 100
In short: as §2

[8] = test system: giant foxtail (Setaria faberii); assay: as above; conditions: Postemergence; for Plant response rating, Foxtail, Giant: scale 0 to 100
In short: as §2

[9] = test system: galium (catchweed bedstraw, Galium aparine); assay: as above; conditions: Postemergence; for Plant response rating, Galium: scale 0 to 100
In short: as §2

[10] = test system: johnsongrass (Sorghum halepense); assay: as above; conditions: Postemergence; for Plant response rating, Johnsongrass: scale 0 to 100
In short: as §2

[11] = test system: winter wheat (Triticum aestivum); assay: as above; conditions: Postemergence; for Plant response rating, Wheat: scale 0 to 100
In short: as §2

[12] = test system: pigweed (Amaranthus retroflexus); assay: as above; conditions: Postemergence; for Plant response rating, Pigweed: scale 0 to 100
In short: as §2

[13] = test system: lambsquarters (Chenopodium album); assay: as above; conditions: Postemergence; for Plant response rating, Lambsquarters: scale 0 to 100
In short: as §2

CC(C)n1cc(C(=O)c2ccccc2)c(-c2cc(Cl)cc(Cl)c2)n1 [Compound 44]
45: Plant response rating (0 to 100), Lambsquarters ([13]; 62 g ai/ha) | Plant response rating (0 to 100), Lambsquarters ([13]; 125 g ai/ha)
65: Plant response rating (0 to 100), Kochia ([1]; 125 g ai/ha) | Plant response rating, Kochia ([1]; 250 g ai/ha)
55: Plant response rating (0 to 100), Kochia ([1]; 62 g ai/ha) | Plant response rating, Lambsquarters ([13]; 250 g ai/ha)
100: Plant response rating, Pigweed ([12]; 250 g ai/ha)
60: Plant response rating (0 to 100), Pigweed ([12]; 62 g ai/ha) | Plant response rating (0 to 100), Pigweed ([12]; 125 g ai/ha)
5: Plant response rating (0 to 100), Soybean ([5]; 62 g ai/ha) | Plant response rating (0 to 100), Soybean ([5]; 125 g ai/ha) | Plant response rating, Soybean ([5]; 250 g ai/ha) | Plant response rating (0 to 100), Corn ([7]; 62 g ai/ha) | Plant response rating (0 to 100), Corn ([7]; 125 g ai/ha)
20: Plant response rating (0 to 100), Chickweed ([2]; 31 g ai/ha) | Plant response rating, Foxtail, Giant ([8]; 250 g ai/ha)
50: Plant response rating, Chickweed ([2]; 250 g ai/ha)
35: Plant response rating (0 to 100), Chickweed ([2]; 62 g ai/ha)
10: Plant response rating, Corn ([7]; 250 g ai/ha)
0: Plant response rating (0 to 100), Oat, Wild ([3]; 62 g ai/ha) | Plant response rating (0 to 100), Oat, Wild ([3]; 125 g ai/ha) | Plant response rating, Oat, Wild ([3]; 250 g ai/ha) | Plant response rating (0 to 100), Nutsedge, Yellow ([4]; 62 g ai/ha) | Plant response rating (0 to 100), Nutsedge, Yellow ([4]; 125 g ai/ha) | Plant response rating, Nutsedge, Yellow ([4]; 250 g ai/ha) | Plant response rating (0 to 100), Ryegrass, Italian ([6]; 62 g ai/ha) | Plant response rating (0 to 100), Ryegrass, Italian ([6]; 125 g ai/ha) | Plant response rating, Ryegrass, Italian ([6]; 250 g ai/ha) | Plant response rating (0 to 100), Corn ([7]; 31 g ai/ha) | Plant response rating (0 to 100), Foxtail, Giant ([8]; 31 g ai/ha) | Plant response rating (0 to 100), Foxtail, Giant ([8]; 62 g ai/ha) | Plant response rating (0 to 100), Foxtail, Giant ([8]; 125 g ai/ha) | Plant response rating (0 to 100), Galium ([9]; 31 g ai/ha) | Plant response rating (0 to 100), Galium ([9]; 62 g ai/ha) | Plant response rating (0 to 100), Galium ([9]; 125 g ai/ha) | Plant response rating, Galium ([9]; 250 g ai/ha) | Plant response rating (0 to 100), Johnsongrass ([10]; 62 g ai/ha) | Plant response rating (0 to 100), Johnsongrass ([10]; 125 g ai/ha) | Plant response rating, Johnsongrass ([10]; 250 g ai/ha) | Plant response rating (0 to 100), Wheat ([11]; 62 g ai/ha) | Plant response rating (0 to 100), Wheat ([11]; 125 g ai/ha) | Plant response rating, Wheat ([11]; 250 g ai/ha)

ON=C(c1ccccc1)c1c[nH]nc1-c1cc(Cl)cc(Cl)c1 [Compound 50]
5: Plant response rating (0 to 100), Galium ([9]; 125 g ai/ha) | Plant response rating, Galium ([9]; 250 g ai/ha)
75: Plant response rating (0 to 100), Pigweed ([12]; 62 g ai/ha)
80: Plant response rating (0 to 100), Lambsquarters ([13]; 62 g ai/ha)
60: Plant response rating (0 to 100), Kochia ([1]; 62 g ai/ha)
65: Plant response rating (0 to 100), Kochia ([1]; 125 g ai/ha) | Plant response rating, Kochia ([1]; 250 g ai/ha)
95: Plant response rating (0 to 100), Chickweed ([2]; 31 g ai/ha) | Plant response rating (0 to 100), Chickweed ([2]; 62 g ai/ha)
0: Plant response rating (0 to 100), Oat, Wild ([3]; 62 g ai/ha) | Plant response rating (0 to 100), Oat, Wild ([3]; 125 g ai/ha) | Plant response rating, Oat, Wild ([3]; 250 g ai/ha) | Plant response rating (0 to 100), Nutsedge, Yellow ([4]; 62 g ai/ha) | Plant response rating (0 to 100), Nutsedge, Yellow ([4]; 125 g ai/ha) | Plant response rating, Nutsedge, Yellow ([4]; 250 g ai/ha) | Plant response rating (0 to 100), Soybean ([5]; 62 g ai/ha) | Plant response rating (0 to 100), Soybean ([5]; 125 g ai/ha) | Plant response rating, Soybean ([5]; 250 g ai/ha) | Plant response rating (0 to 100), Ryegrass, Italian ([6]; 62 g ai/ha) | Plant response rating (0 to 100), Ryegrass, Italian ([6]; 125 g ai/ha) | Plant response rating, Ryegrass, Italian ([6]; 250 g ai/ha) | Plant response rating (0 to 100), Corn ([7]; 31 g ai/ha) | Plant response rating (0 to 100), Corn ([7]; 62 g ai/ha) | Plant response rating (0 to 100), Corn ([7]; 125 g ai/ha) | Plant response rating, Corn ([7]; 250 g ai/ha) | Plant response rating (0 to 100), Foxtail, Giant ([8]; 31 g ai/ha) | Plant response rating (0 to 100), Foxtail, Giant ([8]; 62 g ai/ha) | Plant response rating (0 to 100), Foxtail, Giant ([8]; 125 g ai/ha) | Plant response rating, Foxtail, Giant ([8]; 250 g ai/ha) | Plant response rating (0 to 100), Galium ([9]; 31 g ai/ha) | Plant response rating (0 to 100), Galium ([9]; 62 g ai/ha) | Plant response rating (0 to 100), Johnsongrass ([10]; 62 g ai/ha) | Plant response rating (0 to 100), Johnsongrass ([10]; 125 g ai/ha) | Plant response rating, Johnsongrass ([10]; 250 g ai/ha) | Plant response rating (0 to 100), Wheat ([11]; 62 g ai/ha) | Plant response rating (0 to 100), Wheat ([11]; 125 g ai/ha) | Plant response rating, Wheat ([11]; 250 g ai/ha)
100: Plant response rating (0 to 100), Chickweed ([2]; 125 g ai/ha) | Plant response rating, Chickweed ([2]; 250 g ai/ha) | Plant response rating (0 to 100), Pigweed ([12]; 125 g ai/ha) | Plant response rating, Pigweed ([12]; 250 g ai/ha) | Plant response rating (0 to 100), Lambsquarters ([13]; 125 g ai/ha) | Plant response rating, Lambsquarters ([13]; 250 g ai/ha)

Cn1cc(C(=O)c2ccccc2)c(-c2cc(Br)cc(Br)c2)n1 [Compound 53]
35: Plant response rating, Lambsquarters ([13]; 250 g ai/ha)
0: Plant response rating (0 to 100), Oat, Wild ([3]; 62 g ai/ha) | Plant response rating (0 to 100), Oat, Wild ([3]; 125 g ai/ha) | Plant response rating, Oat, Wild ([3]; 250 g ai/ha) | Plant response rating, Oat, Wild ([3]; 500 g ai/ha) | Plant response rating (0 to 100), Nutsedge, Yellow ([4]; 62 g ai/ha) | Plant response rating (0 to 100), Nutsedge, Yellow ([4]; 125 g ai/ha) | Plant response rating, Nutsedge, Yellow ([4]; 250 g ai/ha) | Plant response rating, Nutsedge, Yellow ([4]; 500 g ai/ha) | Plant response rating (0 to 100), Soybean ([5]; 62 g ai/ha) | Plant response rating (0 to 100), Soybean ([5]; 125 g ai/ha) | Plant response rating, Soybean ([5]; 250 g ai/ha) | Plant response rating (0 to 100), Ryegrass, Italian ([6]; 62 g ai/ha) | Plant response rating (0 to 100), Ryegrass, Italian ([6]; 125 g ai/ha) | Plant response rating, Ryegrass, Italian ([6]; 250 g ai/ha) | Plant response rating, Ryegrass, Italian ([6]; 500 g ai/ha) | Plant response rating (0 to 100), Foxtail, Giant ([8]; 62 g ai/ha) | Plant response rating (0 to 100), Foxtail, Giant ([8]; 125 g ai/ha) | Plant response rating (0 to 100), Galium ([9]; 62 g ai/ha) | Plant response rating (0 to 100), Galium ([9]; 125 g ai/ha) | Plant response rating, Galium ([9]; 250 g ai/ha) | Plant response rating (0 to 100), Johnsongrass ([10]; 62 g ai/ha) | Plant response rating (0 to 100), Johnsongrass ([10]; 125 g ai/ha) | Plant response rating, Johnsongrass ([10]; 250 g ai/ha) | Plant response rating, Johnsongrass ([10]; 500 g ai/ha) | Plant response rating (0 to 100), Wheat ([11]; 62 g ai/ha) | Plant response rating (0 to 100), Wheat ([11]; 125 g ai/ha) | Plant response rating, Wheat ([11]; 250 g ai/ha) | Plant response rating, Wheat ([11]; 500 g ai/ha)
50: Plant response rating (0 to 100), Chickweed ([2]; 62 g ai/ha) | Plant response rating (0 to 100), Chickweed ([2]; 125 g ai/ha)
5: Plant response rating, Soybean ([5]; 500 g ai/ha) | Plant response rating (0 to 100), Corn ([7]; 62 g ai/ha) | Plant response rating (0 to 100), Corn ([7]; 125 g ai/ha) | Plant response rating, Corn ([7]; 250 g ai/ha) | Plant response rating, Corn ([7]; 500 g ai/ha)
10: Plant response rating, Foxtail, Giant ([8]; 250 g ai/ha) | Plant response rating, Foxtail, Giant ([8]; 500 g ai/ha) | Plant response rating, Galium ([9]; 500 g ai/ha)
85: Plant response rating (0 to 100), Pigweed ([12]; 62 g ai/ha) | Plant response rating (0 to 100), Pigweed ([12]; 125 g ai/ha)
100: Plant response rating, Chickweed ([2]; 250 g ai/ha) | Plant response rating, Chickweed ([2]; 500 g ai/ha) | Plant response rating, Lambsquarters ([13]; 500 g ai/ha)
45: Plant response rating (0 to 100), Kochia ([1]; 125 g ai/ha)
30: Plant response rating (0 to 100), Lambsquarters ([13]; 125 g ai/ha)
60: Plant response rating, Kochia ([1]; 250 g ai/ha) | Plant response rating, Kochia ([1]; 500 g ai/ha)
90: Plant response rating, Pigweed ([12]; 250 g ai/ha) | Plant response rating, Pigweed ([12]; 500 g ai/ha)
25: Plant response rating (0 to 100), Kochia ([1]; 62 g ai/ha)
